For 6 molecules, Kd, inhibition and Drug metabolism results are on record in ChEMBL document CHEMBL4825725, “Synthesis and interaction of terminal unsaturated chemical probes with Mycobacterium tuberculosis CYP124A1” (Bioorg Med Chem, 2021).

Each structure is given as a SMILES string. pKd: −log10 of the molar value. Calls of active or inactive are those of the source. No cut-off for these calls is given here.

Data set [1] in a line: Binding affinity to Mycobacterium tuberculosis CYP124A1 by UV-visible spectrophotometric analysis. Conditions: read-out: Kd(app).
Data set [2] relates to Mycobacterium tuberculosis. In words: Inhibition of Mycobacterium tuberculosis CYP124A1 at 50 uM incubated for 10 mins in presence of ferridoxin, ferridoxin-NADP+ reductase and NADPH by HPLC analysis.
Data set [3] can be described thus: Drug metabolism assessed as Mycobacterium tuberculosis CYP124A1-mediated drug oxidation at 50 to 250 uM in presence of ferridoxin, ferridoxin-NADP+ reductase and NADPH by GC-MS analysis. Type of data set: ADME. Conditions: recombinant enzyme, dose 50-250 µM.

Consider `C=CCOC/C(C)=C/CC/C(C)=C/CO`, for which the pKd (in general, −log10 of the Kd, conventionally taken in molar units) in data set [1] was 4.31. Further, the inhibition result in data set [2] was “inactive”. Also, in data set [3], the Drug metabolism result is listed as “Metabolite_Notdetected”.
In the same order, the values of `C#CCOC/C(C)=C/CC/C(C)=C/CO` are 4.84, “inactive” and “Metabolite_Notdetected”.
Take `C#CCOC/C(C)=C/CC/C(C)=C/CC/C(C)=C/CO`: the pKd in data set [1] was 5.82. Besides, in data set [2], the inhibition result was “inactive”. Moreover, in data set [3], the Drug metabolism result is reported as “Metabolite_Notdetected”.
In the case of `C=CCOC/C(C)=C/CC/C(C)=C/CC/C(C)=C/CO`, the negative-log Kd (pKd) in data set [1] is 5.54. In addition, in data set [2], the inhibition result is “inactive”. Further, the Drug metabolism entry in data set [3] was “Metabolite_Notdetected”.
As to `CC(C)CCCC(C)CCCC(C)CCCC(C)CC(=O)O` (centres undefined), in data set [1], the pKd is 6.66.
On the same count and under the same terms, under `CC(C)=CCC/C(C)=C/CC/C(C)=C/CO` [FARNESOL] stands 5.98.
